Test results published in PubChem BioAssay AID2060906 (Molecular Pharmacology Branch, DTP, NCI, 2025).
Each block holds one compound with its values, some of them ahead of it.

System: 485176-168-R4-J1-PDC complex spheroid growth
Assay: Anticancer human tumor 485176-168-R4-J1-PDC patient-derived pancreatic adenocarcinoma cell line growth inhibition [RAS]
Conditions: for viability, T/C: stronger effect = lower value
Excerpt: RAS pathway inhibitors in Combinations in Complex Spheroids
A high-throughput screen of multi-cell type tumor spheroids was designed to identify active combinations of RAS pathway inhibitors and targeted small molecules. Complex spheroids include a stromal component modeled by human endothelial cells (HUVEC) and fibroblasts modeled by human mesenchymal stem cells (MSCs). The concentration ranges selected for each drug and investigational agent were based upon clinically achievable concentrations if the clinical Cmax of the agent was known.
Compounds. The drugs and investigational agents: abemaciclib (NSC768073), cobimetinib (NSC768068), divarasib (GDC6063, NSC841802), docetaxel (NSC628503), GDC-1971 (RLY-1971, NSC841576), gemcitabine (NSC613327), inavolisib (NSC800729), ipatasertib (NSC767898), KB-0742 (NSC834161), MRTX-1133 (NSC836407), osimertinib (NSC779217), RMC-4630 (NSC839698), RMC-6236 (NSC851965), RMC-6291 (NSC852671), Ro-3306 (NSC812927), sapanisertib (NSC764658), SN-38 (NSC673596), staurosporine (NSC755774), SY5609 (NSC837396), and tovorafenib (DAY101, NSC766906), were obtained from the National Cancer Institute (NCI) Developmental Therapeutics Program Chemical Repository. The FDA-approved anticancer drug set is available from the NCI Developmental Therapeutics Program. […] The stock solutions were prepared in dimethyl sulfoxide (DMSO, Sigma-Aldrich, St. Louis, MO, cat. D2650) at 800-fold the tested concentration and stored at -70 degrees C prior to their use. All drugs and investigational agents were tested over a range starting from a high concentration at or near the clinical Cmax and decreasing in half-log increments. If the clinical Cmax for an agent had not been determined, the highest concentration tested was 10 microM.
Cell Culture. All cells were maintained in an incubator at 37 degrees C and 5% CO2 with 95% humidity. The PDC lines were cultured according to standard operating procedures established by the NCI PDMR. All PDCs were thawed and cultured in Matrigel-coated flasks prepared with a working solution of 1X Ham's F-12 nutrient mix, without supplementation (Invitrogen, Waltham, MA, cat. 11765054), 100 U/mL penicillin-streptomycin (Invitrogen, cat. 15140122), and 2.5% Matrigel (Corning Inc., Corning, NY, cat. 354248) for the first three passages. The 362531-283-R-J2-PDC and 782815-120-R-J1-PDC lines were cultured in 6C/Colon 1B media, which includes advanced DMEM/F-12 (Thermo Fisher Scientific, cat. 12634028), 10 mM HEPES (Thermo Fisher Scientific, cat. 15630080), 1X GlutaMAX supplement (Thermo Fisher Scientific, cat. 35050061), 0.1 mg/mL primocin (InvivoGen, San Diego, CA, cat. ant-pm-2), 10% defined fetal bovine serum, heat inactivated (HyClone Laboratories Inc., Logan, UT, cat. SH30070.03HI), 50% L-WRN conditioned media (ATCC, cat. CRL-3276), 1.25 mM N-Acetyl-L-cysteine (Sigma-Aldrich, cat. A9165), 10 mM nicotinamide (Sigma-Aldrich, cat. N0636), 1X B-27 supplement (Thermo Fisher Scientific, cat. 17504044), 1X N-2 supplement (Thermo Fisher Scientific, cat. 17502048), 50 ng/mL human EGF (Thermo Fisher Scientific, cat. PHG0311), and 10 microM Y-27632 dihydrochloride (Tocris Bioscience, cat. 1254). The K12877-001-R-J1-PDC line was cultured in 6I media, which includes all 6C/Colon 1B media plus 10 ng/mL human FGF-10 (PeproTech, cat. 100-26), 1 ng/mL human FGF-2 (PeproTech, cat. 100-18B), 1 µM prostaglandin E2 (Tocris Bioscience, cat. 2296), […] hydrocortisone (Sigma-Aldrich, cat. H4001), and […] bovine insulin (Sigma-Aldrich, cat. I6634). The K86415-001-R-J1-PDC line was cultured in 6D media, which includes all 6C/Colon 1B media components minus the L-WRN conditioned media. The 485176-168-R4-J1-PDC was cultured in PANC media, which includes all 6C/Colon 1B media plus 100 ng/mL human FGF-10 (PeproTech, cat. 100-26), 500 nM SB-431542 (Selleckchem, cat. S1067), and 10 nM gastrin (Tocris Bioscience, cat. 3006). […]

[1] = curve of first compound, second compound 0.0316 µM
[2] = curve of first compound, second compound 0.1 µM
[3] = curve of first compound, second compound 0.316 µM
[4] = curve of first compound, second compound 1 µM
[5] = curve of first compound, second compound 3.16 µM
[6] = curve of first compound, second compound 10 µM
[7] = second compound 0.0316 µM, first compound 0.00316 µM
[8] = second compound 0.0316 µM, first compound 0.01 µM
[9] = second compound 0.0316 µM, first compound 0.0316 µM
[10] = second compound 0.0316 µM, first compound 0.1 µM
[11] = second compound 0.0316 µM, first compound 0.316 µM
[12] = second compound 0.0316 µM, first compound 1 µM
[13] = second compound 0.1 µM, first compound 0.00316 µM
[14] = second compound 0.1 µM, first compound 0.01 µM
[15] = second compound 0.1 µM, first compound 0.0316 µM
[16] = second compound 0.1 µM, first compound 0.1 µM
[17] = second compound 0.1 µM, first compound 0.316 µM
[18] = second compound 0.1 µM, first compound 1 µM
[19] = second compound 0.316 µM, first compound 0.00316 µM
[20] = second compound 0.316 µM, first compound 0.01 µM
[21] = second compound 0.316 µM, first compound 0.0316 µM
[22] = second compound 0.316 µM, first compound 0.1 µM
[23] = second compound 0.316 µM, first compound 0.316 µM
[24] = second compound 0.316 µM, first compound 1 µM
[25] = second compound 1 µM, first compound 0.00316 µM
[26] = second compound 1 µM, first compound 0.01 µM
[27] = second compound 1 µM, first compound 0.0316 µM
[28] = second compound 1 µM, first compound 0.1 µM
[29] = second compound 1 µM, first compound 0.316 µM
[30] = second compound 1 µM, first compound 1 µM
[31] = second compound 3.16 µM, first compound 0.00316 µM
[32] = second compound 3.16 µM, first compound 0.01 µM
[33] = second compound 3.16 µM, first compound 0.0316 µM
[34] = second compound 3.16 µM, first compound 0.1 µM
[35] = second compound 3.16 µM, first compound 0.316 µM
[36] = second compound 3.16 µM, first compound 1 µM
[37] = second compound 10 µM, first compound 0.00316 µM
[38] = second compound 10 µM, first compound 0.01 µM
[39] = second compound 10 µM, first compound 0.0316 µM
[40] = second compound 10 µM, first compound 0.1 µM
[41] = second compound 10 µM, first compound 0.316 µM
[42] = second compound 10 µM, first compound 1 µM
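Further: spheroids exposed to compounds for seven days before readout.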
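Wherever viability, T/C is given: luminescence viability expressed relative to DMSO vehicle wells set as 100%.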

IC50 (compound alone, run of 06/10/2024): > 10000 nM
SMILES: C#Cc1c(F)ccc2cc(O)cc(-c3ncc4c(N5CC6CCC(C5)N6)nc(OCC56CCCN5CC(F)C6)nc4c3F)c12 (stereo unspecified)
viability, T/C (compound 0.1 µM): 102% [middle of 8 runs] | viability, T/C (compound 0.316 µM): 97.6% [middle of 8 runs] | viability, T/C (compound 1 µM): 94% [middle of 8 runs] | viability, T/C (compound 3.16 µM): 99.5% [middle of 8 runs] | viability, T/C (compound 10 µM): 95.7% [middle of 8 runs]

IC50 (curve of compound): > 10000 nM
SMILES: NC1c2ccccc2OC12CCN(c1cnc3c(N4CCCc5ncccc54)n[nH]c3n1)CC2 (stereo unspecified)
viability, T/C (compound 0.1 µM): 79.2% [middle of 4 runs] | viability, T/C (compound 0.316 µM): 86.1% [middle of 4 runs] | viability, T/C (compound 1 µM): 85.1% [middle of 4 runs] | viability, T/C (compound 3.16 µM): 84.5% [middle of 4 runs] | viability, T/C (compound 10 µM): 72.2% [middle of 4 runs]

IC50 [1]: > 1000 nM | IC50 [2]: > 1000 nM | IC50 [3]: > 1000 nM | IC50 [4]: > 1000 nM | IC50 [5]: > 1000 nM | IC50 [6]: > 1000 nM
SMILES: C=CC(=O)Nc1cc(Nc2nccc(-c3cn(C)c4ccccc34)n2)c(OC)cc1N(C)CCN(C)C + C#Cc1c(F)ccc2cc(O)cc(-c3ncc4c(N5CC6CCC(C5)N6)nc(OCC56CCCN5CC(F)C6)nc4c3F)c12
viability, T/C [7]: 103% | viability, T/C [8]: 90.8% | viability, T/C [9]: 99% | viability, T/C [10]: 80.7% | viability, T/C [11]: 88.9% | viability, T/C [12]: 66.7% | viability, T/C [13]: 115% | viability, T/C [14]: 109% | viability, T/C [15]: 92.7% | viability, T/C [16]: 92.9% | viability, T/C [17]: 86.6% | viability, T/C [18]: 66.8% | viability, T/C [19]: 82.5% | viability, T/C [20]: 83.1% | viability, T/C [21]: 99% | viability, T/C [22]: 100% | viability, T/C [23]: 88.4% | viability, T/C [24]: 62.3% | viability, T/C [25]: 95.8% | viability, T/C [26]: 80.8% | viability, T/C [27]: 91% | viability, T/C [28]: 96.1% | viability, T/C [29]: 85.2% | viability, T/C [30]: 64.4% | viability, T/C [31]: 106% | viability, T/C [32]: 89.5% | viability, T/C [33]: 96.7% | viability, T/C [34]: 75.6% | viability, T/C [35]: 70.7% | viability, T/C [36]: 68.5% | viability, T/C [37]: 100% | viability, T/C [38]: 86.6% | viability, T/C [39]: 85.3% | viability, T/C [40]: 103% | viability, T/C [41]: 84% | viability, T/C [42]: 61.9%

IC50 [1]: 358 nM | IC50 [2]: 267 nM | IC50 [3]: 231 nM | IC50 [4]: 31 nM | IC50 [5]: 88.8 nM | IC50 [6]: 53.9 nM
SMILES: O=C(c1ccc(F)c(F)c1Nc1ccc(I)cc1F)N1CC(O)([C@@H]2CCCCN2)C1 + C#Cc1c(F)ccc2cc(O)cc(-c3ncc4c(N5CC6CCC(C5)N6)nc(OCC56CCCN5CC(F)C6)nc4c3F)c12
viability, T/C [7]: 80.3% | viability, T/C [8]: 79.3% | viability, T/C [9]: 69.7% | viability, T/C [10]: 72.4% | viability, T/C [11]: 50.5% | viability, T/C [12]: 41.1% | viability, T/C [13]: 79% | viability, T/C [14]: 82.2% | viability, T/C [15]: 72.6% | viability, T/C [16]: 62.5% | viability, T/C [17]: 48.2% | viability, T/C [18]: 37.5% | viability, T/C [19]: 88% | viability, T/C [20]: 72.3% | viability, T/C [21]: 71.1% | viability, T/C [22]: 56% | viability, T/C [23]: 45.4% | viability, T/C [24]: 41% | viability, T/C [25]: 96% | viability, T/C [26]: 77.7% | viability, T/C [27]: 49.5% | viability, T/C [28]: 47.3% | viability, T/C [29]: 58.2% | viability, T/C [30]: 38.9% | viability, T/C [31]: 90.4% | viability, T/C [32]: 86.4% | viability, T/C [33]: 64.4% | viability, T/C [34]: 50.6% | viability, T/C [35]: 38.3% | viability, T/C [36]: 39.2% | viability, T/C [37]: 98.3% | viability, T/C [38]: 60.1% | viability, T/C [39]: 57.8% | viability, T/C [40]: 51% | viability, T/C [41]: 46.8% | viability, T/C [42]: 29.9%
